From paper PMC9737983, “Quantification of Paeoniflorin by Fully Validated LC–MS/MS Method: Its Application to Pharmacokinetic Interaction between Paeoniflorin and Verapamil” (Molecules, 2022)
Where two headings read alike, the source gives them in different places. Values belong to the molecule of their own block, whether it stands above or below them.

Tests used:
[1] = Pharmacokinetic study in male SD rats (intravenous, oral, oral co-administration with verapamil); assay type: in vivo, Sprague–Dawley rats; details: for MRT inf: read-out: MRT0–∞; for Vd/F: read-out: Vz/F
Procedure: The animal experiment was approved by the Experimental Animal Ethics Committee of Shanghai University of Traditional Chinese Medicine (the Ethics Number: PZSHUTCM201016015). After 7 days of freely feeding the animals to acclimation, the rats were randomly divided into five groups, including the following: PF at an intravenous dose of 2 mg/kg and intragastric administrations of 5 mg/kg, 10 mg/kg, and 20 mg/kg; PF combined with verapamil at doses of 20 mg/kg and 50 mg/kg, respectively. All groups of PF or PF combined with verapamil were dissolved in saline to be completely dissolved or suspended. Blood samples were collected into EDTA−2K anti-coagulant tubes at projected times (0.083, 0.25, 0.5, 1, 2, 4, and 6 h post-dose) and then immediately centrifuged at 5500 rpm at 4 °C for 10 min to obtain the supernatant. The plasma samples were stored at −20 °C prior to analysis.
The plasma drug concentration of the PF was quantitated, according to the calibration curve, by the ratio of the analyte-to-IS peak areas obtained for each sample. Pharmacokinetic parameters, such as elimination half-life (T1/2), the area under the concentration–time curve from time zero to infinity (AUC0–∞), total body clearance (CL), and volume of distribution (Vz), were analyzed by the non-compartment model using WinNonlin software (Version 8.2). Subsequently, the main pharmacokinetic parameters were analyzed by an independent sample t-test. The oral absolute bioavailability was calculated as prescribed by the following equation: F (%) = (AUCp.o. × Dosei.v.)/(AUCi.v. × Dosep.o.) × 100%.

Caco−2 cells = assay: Caco-2 Transwell transport of PF with and without verapamil; assay type: in vitro ADME; details: with/without verapamil, p < 0.05
Procedure: (§1) The Caco−2 cells were purchased from ATCC (Manassas, VA, USA) and cultured in a DMEM high-glucose medium with 15% FBS, 1% NEAA, and 100 U/mL penicillin and streptomycin. A total of 1.25 × 10^5 cells/cm^2 were seeded into […] (PET) in 96-well Falcon insert systems for 21–28 days to obtain a confluent cell monolayer. The test compounds were diluted with the transport buffer (HBSS with BSA) obtained from a 10 mM stock solution to a concentration of 10 µM and applied to the apical or basolateral sides of the cell monolayer. The permeation of the test compounds from A to B directions or B to A directions was determined in duplicate over a 120-min incubation period at 37 °C and 5% CO2 with a relative humidity of 95%. In addition, the efflux ratio of each compound was also determined. Test and reference compounds were quantified by LC-MS/MS analysis based on the peak area ratio of analyte/IS. The apparent permeability coefficient, Papp (cm/s), was calculated using the following equation:Papp = (dCr/dt) × Vr/(A × C0) where dCr/dt is the cumulative concentration of the compound in the receiver chamber as a function of time (S); Vr is the solution volume in the receiver chamber (0.1 mL on the apical side and 0.25 mL on the basolateral side); A is the surface area for the transport, i.e., 0.0804 cm^2 for the area of the monolayer and C0 is the initial concentration in the donor chamber. The efflux ratio was calculated using the following equation:Efflux Ratio = Papp BA/Papp AB where Papp BA is the apparent permeability coefficient obtained from the BL to AP sides (cm/s), and Papp AB is the apparent permeability coefficient obtained from the AP to BL sides (cm/s).

[2] = as above; assay type: in vitro ADME; details: human, Caco-2, absence of verapamil
Procedure: as §1

Caco-2 cell = details: Caco-2 monolayer cell; cited from earlier work
[3] = Stability of PF in SD rat plasma under storage conditions; assay type: in vitro ADME; details: for Freeze-thaw Stability, Measured Conc. / Bench-top Stability, Measured Conc. / Long-term Stability, Measured Conc.: SD rat plasma; for Freeze-thaw Stability, Measured Conc.: 4 cycles at −20 °C; for Freeze-thaw Stability, Measured Conc. / Bench-top Stability, Measured Conc. / Long-term Stability, Measured Conc. / Autosampler Stability, Measured Conc.: n = 6; for Bench-top Stability, Measured Conc.: room temperature for 16 h; for Long-term Stability, Measured Conc.: −20 °C for 90 days; for Autosampler Stability, Measured Conc.: extracted SD rat plasma, 10 °C for 72 h
Procedure: Stability in the plasma was tested by comparing the two-level QC samples (LQC and HQC) in sextuplicate injections to theoretical concentrations.
The stability of PF in rat plasma was investigated by analyzing QC samples at […]. Long-term stability was tested at −20 °C for at least 30 days; short-term stability was tested at room temperature for at least 6 h; the post-preparative stability test was conducted at 10 °C for 72 […] The determined concentrations should be within ±15% of the nominal concentrations.

[4] = design: method as in PMID 31400507; details: cited from earlier work; for BCS class: classic BCS, everted gut sac assay
[5] = male, Sprague-Dawley, rat, plasma, iv, 2 mg/kg, intravenous 2 mg/kg, n = 5
[6] = male, Sprague-Dawley, rat, plasma, po, 5 mg/kg, oral mono-administration 5 mg/kg, n = 5
[7] = male, Sprague-Dawley, rat, plasma, po, 10 mg/kg, oral mono-administration 10 mg/kg, n = 5
[8] = male, Sprague-Dawley, rat, plasma, po, 20 mg/kg, oral 20 mg/kg co-administration with verapamil (50 mg/kg), n = 5
[9] = male, Sprague-Dawley, rat, plasma, po, 20 mg/kg, oral mono-administration 20 mg/kg, n = 5
[10] = male, Sprague-Dawley, rat, plasma, po, 20 mg/kg, range over oral doses 5, 10, 20 mg/kg
[11] = male, Sprague-Dawley, rat, plasma, intravenous 2 mg/kg, n = 5
[12] = oral 20 mg/kg with verapamil vs alone, p < 0.05

AUC(0-inf) [1, 5]: 2400 ± 201 ng·h/mL
AUC(0-t) [1, 5]: 2400 ± 202 ng·h/mL
half-life [1, 5]: 54 ± 24 min
MRT inf [1, 5]: 12 min
bioavailability ([1]; male, Sprague-Dawley, rat, plasma, po, 5 mg/kg, oral mono-administration 5 mg/kg vs intravenous 2 mg/kg, read-out: F): 1.3%
AUC(0-inf) [1, 6]: 74.7 ± 49.1 ng·h/mL
AUC(0-t) [1, 6]: 64.7 ± 44 ng·h/mL
CL/F [1, 6]: 1640 mL/min/kg
Cmax [1, 6]: 42.3 ± 17.5 ng/mL
Tmax [1, 6]: 30 min
half-life [1, 6]: 48 ± 24 min
MRT inf [1, 6]: 78 ± 30 min
Vd/F [1, 6]: 85.7 ± 21.1 L/kg
bioavailability ([1]; male, Sprague-Dawley, rat, plasma, po, 10 mg/kg, oral mono-administration 10 mg/kg vs intravenous 2 mg/kg, read-out: F): 0.7%
AUC(0-inf) [1, 7]: 84 ± 17 ng·h/mL
AUC(0-t) [1, 7]: 82.3 ± 18.4 ng·h/mL
CL/F [1, 7]: 2050 mL/min/kg
Cmax [1, 7]: 63.4 ± 11.4 ng/mL
Tmax [1, 7]: 30 min
half-life [1, 7]: 30 ± 6 min
MRT inf [1, 7]: 60 ± 12 min
Vd/F [1, 7]: 89 ± 7.1 L/kg
AUC(0-inf) [1, 8]: 892 ± 487 ng·h/mL
AUC(0-t) [1, 8]: 882 ± 491 ng·h/mL
CL/F [1, 8]: 487 mL/min/kg
Cmax [1, 8]: 464 ± 237 ng/mL
Tmax [1, 8]: 42 ± 18 min
half-life [1, 8]: 42 ± 6 min
MRT inf [1, 8]: 90 ± 6 min
Vd/F [1, 8]: 31.5 ± 20.3 L/kg
bioavailability ([1]; male, Sprague-Dawley, rat, plasma, po, 20 mg/kg, oral 20 mg/kg co-administration with verapamil vs intravenous 2 mg/kg, read-out: F): 3.7%
bioavailability ([1]; male, Sprague-Dawley, rat, plasma, po, 20 mg/kg, oral mono-administration 20 mg/kg vs intravenous 2 mg/kg, read-out: F): 0.6%
AUC(0-inf) [1, 9]: 157 ± 65.3 ng·h/mL
AUC(0-t) [1, 9]: 149 ± 64.8 ng·h/mL
CL/F [1, 9]: 2420 mL/min/kg
Cmax [1, 9]: 100 ± 42.5 ng/mL
Tmax [1, 9]: 42 ± 18 min
half-life [1, 9]: 30 ± 6 min
MRT inf [1, 9]: 72 ± 6 min
Vd/F [1, 9]: 112 ± 45.7 L/kg
CL/F [1, 10]: 1640 to 2420 mL/min/kg
Tmax [1, 10]: 30 to 42 min
half-life [1, 10]: 30 to 48 min
bioavailability ([1]; male, Sprague-Dawley, rat, plasma, po, 20 mg/kg, range over oral doses 5, 10, 20 mg/kg, read-out: absolute oral bioavailability): 0.6 to 1.3%
C0 [1, 11]: 11200 ng/mL
clearance [1, 11]: 13.3 mL/min/kg
Vd ([1]; male, Sprague-Dawley, rat, plasma, intravenous 2 mg/kg, n = 5, read-out: Vz): 0.2 L/kg
Cmax ([1]; oral 5 mg/kg): 42.3 ± 17.5 ng/mL
Cmax ([1]; oral 10 mg/kg): 63.4 ± 11.4 ng/mL
Cmax ([1]; oral 20 mg/kg): 100 ± 42.5 ng/mL
increase of Cmax, co-administration vs mono-administration ([1]; oral 20 mg/kg with verapamil vs alone, p < 0.01): 4.6 times
increase of AUC0–t, co-administration vs mono-administration [1, 12]: 5.9 times
increase of AUC0–∞, co-administration vs mono-administration [1, 12]: 5.7 times
Tmax, T1/2 and MRT0–∞, co-administration vs mono-administration ([1]; oral 20 mg/kg with verapamil vs alone, statistical analysis): no significant difference
efflux ratio at 120 min, 10 µM [2]: 1.52
Papp A→B at 120 min, 10 µM ([2]; 10 µM, 120 min): 0.17 ×10⁻⁶ cm/s
Papp B→A at 120 min, 10 µM ([2]; 10 µM, 120 min): 0.26 ×10⁻⁶ cm/s
stability in SD rat plasma ([3]; 16 h bench-top, 72 h autosampler, 4 freeze-thaw cycles at −20 °C, 90 days at −20 °C): stable
Freeze-thaw Stability, Measured Conc. ([3]; nominal 3.0 ng/mL): 3.14 ± 0.17 ng/mL
Freeze-thaw Stability, Measured Conc. ([3]; nominal 1500 ng/mL): 1662 ± 44.5 ng/mL
Bench-top Stability, Measured Conc. ([3]; nominal 3.0 ng/mL): 3.01 ± 0.21 ng/mL
Bench-top Stability, Measured Conc. ([3]; nominal 1500 ng/mL): 1538 ± 52.0 ng/mL
Long-term Stability, Measured Conc. ([3]; nominal 3.0 ng/mL): 2.86 ± 0.20 ng/mL
Long-term Stability, Measured Conc. ([3]; nominal 1500 ng/mL): 1500 ± 37.4 ng/mL
Autosampler Stability, Measured Conc. ([3]; nominal 3.0 ng/mL): 2.91 ± 0.16 ng/mL
Autosampler Stability, Measured Conc. ([3]; nominal 1500 ng/mL): 1535 ± 54.7 ng/mL
Molecule: C[C@@]12C[C@@]3(O)O[C@@H](O1)[C@]1(COC(=O)c4ccccc4)[C@H]3C[C@@]12O[C@@H]1O[C@H](CO)[C@@H](O)[C@H](O)[C@H]1O [PF, paeoniflorin]
P-gp substrate status (Caco−2 cells): may be a substrate for the P-gp efflux transporter
efflux rate constant (Caco-2 cell): higher than 2
solubility and permeability characteristics [4]: high solubility and low permeability

Molecule: O=c1c(O[C@@H]2O[C@H](CO)[C@H](O)[C@H](O)[C@H]2O)c(-c2ccc(O)c(O)c2)oc2cc(O)cc(O)c12 [hyperoside]
BCS class [4]: III/IV

Molecule: COc1cc2c3c(c1OC)-c1ccccc1C[C@H]3N(C)CC2 [nuciferine]
BCS class [4]: III/IV

Molecule: C[C@@H]1O[C@@H](OC[C@H]2O[C@@H](Oc3c(-c4ccc(O)c(O)c4)oc4cc(O)cc(O)c4c3=O)[C@H](O)[C@@H](O)[C@@H]2O)[C@H](O)[C@H](O)[C@H]1O [rutin]
BCS class [4]: III/IV

Molecule: salvianolic acid B
BCS class [4]: III/IV
